pIC50: −log10 of the molar value. In brackets after ≈: the same amount, converted by molar mass. Like-named read-outs stand apart in the source and are kept apart here.
Key:
[1] = tested on: Phytophthora capsici (Pc); assay: Growth inhibition assay of fungal pathogens, Pc; assay type: cell-based; settings: 48 h
Outline: (§1)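 Inhibition percentages reflect 48 h OD600 and visual scores relative to a 2% DMSO control. Test concentrations were 50, 10, 2 ppm or 2, 0.4, 0.08 ppm final, applied to spores in 17% V8 medium.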

[2] = target: human (hACC2) (Homo sapiens, UniProt O00763); assay: In vitro ACC inhibition assay (ADP-Glo), hACC2; assay type: biochemical; settings: 5 nM ACC2, 20 μM ATP, 20 μM acetyl-CoA
Chain of human (hACC2) (O00763 whole entry): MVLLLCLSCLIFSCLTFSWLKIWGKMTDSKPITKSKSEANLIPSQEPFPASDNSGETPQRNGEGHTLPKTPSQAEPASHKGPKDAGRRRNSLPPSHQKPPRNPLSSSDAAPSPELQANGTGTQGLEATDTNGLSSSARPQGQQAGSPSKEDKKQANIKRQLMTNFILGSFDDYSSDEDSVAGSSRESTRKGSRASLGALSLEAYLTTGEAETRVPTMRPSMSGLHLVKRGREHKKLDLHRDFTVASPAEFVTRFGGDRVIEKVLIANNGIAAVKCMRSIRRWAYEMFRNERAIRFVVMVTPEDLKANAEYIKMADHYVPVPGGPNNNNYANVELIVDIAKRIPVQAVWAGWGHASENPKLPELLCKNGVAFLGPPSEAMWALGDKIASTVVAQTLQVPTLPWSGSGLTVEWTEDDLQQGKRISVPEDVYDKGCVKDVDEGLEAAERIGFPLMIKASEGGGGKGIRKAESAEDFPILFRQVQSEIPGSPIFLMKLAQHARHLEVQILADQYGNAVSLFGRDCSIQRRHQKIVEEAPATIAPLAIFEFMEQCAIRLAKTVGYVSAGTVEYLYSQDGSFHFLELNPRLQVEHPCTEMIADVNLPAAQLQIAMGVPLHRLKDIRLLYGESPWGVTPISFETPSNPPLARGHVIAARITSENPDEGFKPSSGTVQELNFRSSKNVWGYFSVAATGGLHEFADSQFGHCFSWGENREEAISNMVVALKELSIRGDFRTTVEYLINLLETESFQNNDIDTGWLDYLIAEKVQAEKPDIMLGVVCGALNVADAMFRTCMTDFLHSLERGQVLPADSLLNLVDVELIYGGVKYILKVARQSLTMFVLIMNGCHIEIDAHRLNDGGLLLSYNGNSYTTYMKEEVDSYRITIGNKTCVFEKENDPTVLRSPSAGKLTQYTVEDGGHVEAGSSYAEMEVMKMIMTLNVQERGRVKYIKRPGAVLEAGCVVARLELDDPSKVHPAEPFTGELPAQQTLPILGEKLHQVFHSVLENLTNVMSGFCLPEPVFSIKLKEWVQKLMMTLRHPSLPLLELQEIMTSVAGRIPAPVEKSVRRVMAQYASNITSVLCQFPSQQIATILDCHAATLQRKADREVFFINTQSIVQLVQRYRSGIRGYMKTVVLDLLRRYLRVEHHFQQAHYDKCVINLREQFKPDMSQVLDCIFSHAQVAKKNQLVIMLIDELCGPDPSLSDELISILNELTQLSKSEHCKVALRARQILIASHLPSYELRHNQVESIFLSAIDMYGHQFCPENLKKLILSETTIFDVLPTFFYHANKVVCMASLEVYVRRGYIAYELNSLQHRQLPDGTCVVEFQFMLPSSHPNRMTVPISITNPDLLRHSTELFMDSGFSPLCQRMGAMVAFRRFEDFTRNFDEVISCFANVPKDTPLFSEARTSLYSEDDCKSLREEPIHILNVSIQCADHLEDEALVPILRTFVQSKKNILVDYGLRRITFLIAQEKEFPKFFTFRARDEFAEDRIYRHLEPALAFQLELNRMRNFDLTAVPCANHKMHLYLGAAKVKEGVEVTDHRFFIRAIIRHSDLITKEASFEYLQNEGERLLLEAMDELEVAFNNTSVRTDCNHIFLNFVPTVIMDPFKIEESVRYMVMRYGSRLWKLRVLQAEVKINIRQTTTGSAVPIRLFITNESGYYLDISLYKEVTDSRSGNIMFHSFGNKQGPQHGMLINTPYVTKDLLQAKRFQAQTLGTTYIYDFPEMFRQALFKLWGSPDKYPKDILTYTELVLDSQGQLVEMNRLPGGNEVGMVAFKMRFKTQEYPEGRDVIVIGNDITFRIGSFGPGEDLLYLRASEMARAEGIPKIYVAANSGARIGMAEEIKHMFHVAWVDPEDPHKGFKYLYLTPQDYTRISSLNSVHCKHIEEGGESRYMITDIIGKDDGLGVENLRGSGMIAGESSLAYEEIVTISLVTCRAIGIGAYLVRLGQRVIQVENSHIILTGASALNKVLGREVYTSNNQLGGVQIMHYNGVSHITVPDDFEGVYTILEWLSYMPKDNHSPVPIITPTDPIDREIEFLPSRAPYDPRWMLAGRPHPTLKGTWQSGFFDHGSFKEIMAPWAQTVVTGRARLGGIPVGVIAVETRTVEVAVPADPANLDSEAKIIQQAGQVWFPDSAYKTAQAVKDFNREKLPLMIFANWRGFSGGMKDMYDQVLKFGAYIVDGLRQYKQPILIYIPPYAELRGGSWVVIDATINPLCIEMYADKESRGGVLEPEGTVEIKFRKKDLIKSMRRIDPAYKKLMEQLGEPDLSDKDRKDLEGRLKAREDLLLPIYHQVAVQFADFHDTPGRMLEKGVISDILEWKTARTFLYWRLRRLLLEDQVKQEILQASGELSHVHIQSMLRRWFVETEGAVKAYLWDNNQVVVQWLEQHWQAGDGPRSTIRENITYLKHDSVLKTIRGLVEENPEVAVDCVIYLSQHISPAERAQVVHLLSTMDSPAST
Procedure: The detailed procedure is as follows. […] 10 μL ADP glo reagent was added. […] 20 μL kinase detection reagent was added.

[3] = tested on: Diplodia maydis (Dm); assay: Growth inhibition assay of fungal pathogens, Dm; assay type: cell-based; settings: Stenocarpella maydis, 48 h
Outline: as §1

[4] = tested on: Fusarium virguliforme (Fv); assay: Growth inhibition assay of fungal pathogens, Fv; assay type: cell-based; settings: 48 h
Outline: as §1

[5] = tested on: Botrtyis cinerea (Bc); assay: Growth inhibition assay of fungal pathogens, Bc; assay type: cell-based; settings: 48 h
Outline: as §1

[6] = tested on: C. albicans; assay: Antifungal Activity Assay (broth microtiter MIC), C. albicans; assay type: cell-based, Candida albicans; settings: Candida albicans, ATCC90028, 48 h
Outline: (§2)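 CLSI M27-A3 broth microdilution in RPMI 1640+MOPS, final inoculum 2.5×10^3 CFU/mL from overnight Sabouraud cultures grown at 35 °C. MIC read visually at 48 h against growth control.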

[7] = tested on: C. krusei; assay: Antifungal Activity Assay (broth microtiter MIC), C. krusei; assay type: cell-based, Candida krusei; settings: Pichia kudriavzevii, ATCC6258, 48 h
Outline: as §2

[8] = tested on: Rhizoctonia solani (Rs); assay: Growth inhibition assay of fungal pathogens, Rs; assay type: cell-based; settings: 48 h
[9] = target: fungal (fACC2) (UniProt Q00955); settings: read-out: fACC2 (in vitro ACC2 Inhibition Assay, IC50), ADP-Glo, 5 nM ACC2, 20 μM ATP, 20 μM acetyl-CoA
Chain of fungal (fACC2) (Q00955 whole entry): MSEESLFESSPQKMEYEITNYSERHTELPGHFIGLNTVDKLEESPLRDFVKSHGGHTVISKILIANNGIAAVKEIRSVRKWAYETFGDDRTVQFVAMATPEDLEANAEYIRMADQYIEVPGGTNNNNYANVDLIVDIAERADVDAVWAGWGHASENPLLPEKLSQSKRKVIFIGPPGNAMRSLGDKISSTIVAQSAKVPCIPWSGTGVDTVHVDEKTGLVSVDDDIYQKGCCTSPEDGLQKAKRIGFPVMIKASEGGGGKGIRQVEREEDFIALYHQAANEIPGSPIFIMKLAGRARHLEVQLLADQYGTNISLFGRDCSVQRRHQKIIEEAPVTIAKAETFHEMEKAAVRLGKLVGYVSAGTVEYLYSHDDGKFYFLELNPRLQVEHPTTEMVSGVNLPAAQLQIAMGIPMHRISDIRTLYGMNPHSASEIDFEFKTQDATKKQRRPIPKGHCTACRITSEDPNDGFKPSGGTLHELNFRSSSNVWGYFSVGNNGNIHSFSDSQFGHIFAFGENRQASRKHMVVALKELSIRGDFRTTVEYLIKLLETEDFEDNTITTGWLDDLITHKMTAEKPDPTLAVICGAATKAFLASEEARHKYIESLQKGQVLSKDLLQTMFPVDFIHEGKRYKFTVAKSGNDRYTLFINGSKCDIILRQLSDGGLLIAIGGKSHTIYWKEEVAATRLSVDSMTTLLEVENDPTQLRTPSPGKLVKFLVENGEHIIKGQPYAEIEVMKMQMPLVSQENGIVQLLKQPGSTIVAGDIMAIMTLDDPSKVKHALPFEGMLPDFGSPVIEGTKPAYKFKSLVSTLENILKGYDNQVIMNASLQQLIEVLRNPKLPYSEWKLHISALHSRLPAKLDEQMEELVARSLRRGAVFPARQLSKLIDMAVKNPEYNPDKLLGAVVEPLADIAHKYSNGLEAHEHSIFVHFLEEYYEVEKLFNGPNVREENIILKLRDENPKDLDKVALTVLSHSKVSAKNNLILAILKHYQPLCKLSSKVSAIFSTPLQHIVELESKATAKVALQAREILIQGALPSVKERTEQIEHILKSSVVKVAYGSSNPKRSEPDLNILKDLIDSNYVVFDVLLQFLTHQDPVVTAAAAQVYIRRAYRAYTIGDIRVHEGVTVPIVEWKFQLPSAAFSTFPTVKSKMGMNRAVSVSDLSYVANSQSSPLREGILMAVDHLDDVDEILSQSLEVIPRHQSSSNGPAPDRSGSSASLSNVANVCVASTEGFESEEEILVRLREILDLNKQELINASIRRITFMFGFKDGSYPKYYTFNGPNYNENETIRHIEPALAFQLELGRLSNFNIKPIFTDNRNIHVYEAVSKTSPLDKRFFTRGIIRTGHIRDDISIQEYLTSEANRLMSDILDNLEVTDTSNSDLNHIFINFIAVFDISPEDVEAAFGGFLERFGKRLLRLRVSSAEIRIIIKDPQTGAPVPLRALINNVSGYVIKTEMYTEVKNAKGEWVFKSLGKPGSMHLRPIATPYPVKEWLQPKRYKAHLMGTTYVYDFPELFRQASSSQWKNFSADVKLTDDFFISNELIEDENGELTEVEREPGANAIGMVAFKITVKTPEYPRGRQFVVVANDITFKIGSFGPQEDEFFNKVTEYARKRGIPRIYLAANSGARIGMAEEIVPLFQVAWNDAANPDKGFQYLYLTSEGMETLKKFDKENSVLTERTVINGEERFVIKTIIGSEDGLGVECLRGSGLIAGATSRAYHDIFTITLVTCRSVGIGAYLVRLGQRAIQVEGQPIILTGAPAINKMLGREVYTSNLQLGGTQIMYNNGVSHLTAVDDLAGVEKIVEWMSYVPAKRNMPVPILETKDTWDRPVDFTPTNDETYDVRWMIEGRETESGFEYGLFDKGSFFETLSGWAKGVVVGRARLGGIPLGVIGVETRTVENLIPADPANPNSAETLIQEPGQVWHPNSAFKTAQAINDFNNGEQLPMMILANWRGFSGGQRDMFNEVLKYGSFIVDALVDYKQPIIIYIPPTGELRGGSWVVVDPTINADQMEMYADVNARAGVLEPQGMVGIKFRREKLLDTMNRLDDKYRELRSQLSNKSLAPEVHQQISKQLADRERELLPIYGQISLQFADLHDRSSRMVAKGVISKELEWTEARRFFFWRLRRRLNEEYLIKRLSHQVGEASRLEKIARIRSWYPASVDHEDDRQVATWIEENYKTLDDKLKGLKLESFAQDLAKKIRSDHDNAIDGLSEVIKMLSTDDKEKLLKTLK

[10] = tested on: C. parapsilosis; assay: Antifungal Activity Assay (broth microtiter MIC), C. parapsilosis; assay type: cell-based, Candida parapsilosis; settings: Lodderomyces parapsilosis, ATCC22019, 48 h
Outline: as §2

[11] = read-out: Concentration at 90% Inhibition Pc, Phytophthora capsici, growth inhibition at 48 hours vs 2% DMSO control
[12] = read-out: Concentration at 90% Inhibition Pc, Phytophthora capsici, growth inhibition vs 2% DMSO control at 48 hours
[13] = read-out: Concentration at 90% Inhibition Dm, Diplodia maydis, growth inhibition at 48 hours vs 2% DMSO control
[14] = read-out: Concentration at 90% Inhibition Dm, Diplodia maydis, growth inhibition vs 2% DMSO control at 48 hours
[15] = read-out: Concentration at 90% Inhibition Fv, Fusarium virguliforme, growth inhibition at 48 hours vs 2% DMSO control
[16] = read-out: Concentration at 90% Inhibition Fv, Fusarium virguliforme, growth inhibition vs 2% DMSO control at 48 hours
[17] = read-out: Concentration at 90% Inhibition Bc, Botrtyis cinerea, growth inhibition at 48 hours vs 2% DMSO control
[18] = read-out: Concentration at 90% Inhibition Bc, Botrtyis cinerea, growth inhibition vs 2% DMSO control at 48 hours
[19] = read-out: MIC, C. albicans ATCC 90028, Table 3a, 3 replicates, MIC recorded at 48 h
[20] = read-out: MIC, C. albicans ATCC 90028, Table 3b (additional results), 3 replicates, MIC recorded at 48 h
[21] = read-out: MIC, C. krusei ATCC 6258, Table 3a, 3 replicates, MIC recorded at 48 h
[22] = read-out: MIC, C. krusei ATCC 6258, Table 3b (additional results), 3 replicates, MIC recorded at 48 h
[23] = read-out: Concentration at 90% Inhibition Rs, Rhizoctonia solani, mycelial plugs, growth inhibition at 48 hours vs 2% DMSO control
[24] = read-out: Concentration at 90% Inhibition Rs, Rhizoctonia solani, mycelial plugs, growth inhibition vs 2% DMSO control at 48 hours
[25] = read-out: MIC, C. parapsilosis ATCC 22019, Table 3a, 3 replicates, MIC recorded at 48 h
[26] = read-out: MIC, C. parapsilosis ATCC 22019, Table 3b (additional results), 3 replicates, MIC recorded at 48 h
[27] = growth inhibition at 48 hours vs 2% DMSO control, read-out: Concentration at 90% Inhibition Pc
[28] = growth inhibition vs 2% DMSO control at 48 hours, read-out: Concentration at 90% Inhibition Pc
[29] = Diplodia maydis, growth inhibition at 48 hours vs 2% DMSO control, read-out: Concentration at 90% Inhibition Dm
[30] = Diplodia maydis, growth inhibition vs 2% DMSO control at 48 hours, read-out: Concentration at 90% Inhibition Dm
[31] = growth inhibition at 48 hours vs 2% DMSO control, read-out: Concentration at 90% Inhibition Fv
[32] = growth inhibition vs 2% DMSO control at 48 hours, read-out: Concentration at 90% Inhibition Fv
[33] = Botrtyis cinerea, growth inhibition at 48 hours vs 2% DMSO control, read-out: Concentration at 90% Inhibition Bc
[34] = Botrtyis cinerea, growth inhibition vs 2% DMSO control at 48 hours, read-out: Concentration at 90% Inhibition Bc
[35] = Table 3a, ATCC 90028, 3 replicates, MIC recorded at 48 h, read-out: MIC, C. albicans ATCC 90028
[36] = Table 3b (additional results), ATCC 90028, 3 replicates, MIC recorded at 48 h, read-out: MIC, C. albicans ATCC 90028
[37] = Table 3a, ATCC 6258, 3 replicates, MIC recorded at 48 h, read-out: MIC, C. krusei ATCC 6258
[38] = Table 3b (additional results), ATCC 6258, 3 replicates, MIC recorded at 48 h, read-out: MIC, C. krusei ATCC 6258
[39] = mycelial plugs, growth inhibition at 48 hours vs 2% DMSO control, read-out: Concentration at 90% Inhibition Rs
[40] = mycelial plugs, growth inhibition vs 2% DMSO control at 48 hours, read-out: Concentration at 90% Inhibition Rs
[41] = Table 3a, ATCC 22019, 3 replicates, MIC recorded at 48 h, read-out: MIC, C. parapsilosis ATCC 22019
[42] = Table 3b (additional results), ATCC 22019, 3 replicates, MIC recorded at 48 h, read-out: MIC, C. parapsilosis ATCC 22019

Row | SMILES | IC90 [1, 11] [µg/mL] | IC90 [1, 12] [µg/mL] | pIC50 ([2]; Table 2a) | pIC50 ([2]; Table 2b, additional results) | IC90 [3, 13] [µg/mL] | IC90 [3, 14] [µg/mL] | IC90 [4, 15] [µg/mL] | IC90 [4, 16] [µg/mL] | IC90 [5, 17] [µg/mL] | IC90 [5, 18] [µg/mL] | MIC [6, 19] [µg/mL] | MIC [6, 20] [µg/mL] | MIC [7, 21] [µg/mL] | MIC [7, 22] [µg/mL] | IC90 [8, 23] [µg/mL] | IC90 [8, 24] [µg/mL] | pIC50 ([9]; Table 2a) | pIC50 ([9]; Table 2b, additional results) | MIC [10, 25] [µg/mL] | MIC [10, 26] [µg/mL] | other results
1 | COc1ccc(F)cc1[C@H](Cn1c(=O)n(C(C)(C)C(=O)NC(C)C)c(=O)c2c(C)c(-n3nccn3)sc21)OC[C@@H](C)O [Compound I-45, 2-(1-((R)-2-(5-fluoro-2-methoxyphenyl)-2-((R)-2-hydroxypropoxy)ethyl)-5-methyl-2,4-dioxo-6-(2H-1,2,3-triazol-2-yl)-1,4-dihydro-thieno[2,3-d]pyrimidin-3(2H)-yl)-N-isopropyl-2-methylpropanamide] | 2 (≈ 3.32 µM) | 10 (≈ 16.6 µM) | 7.40 to 8.00 | 7.40 to 8.00 | 0.4 (≈ 0.664 µM) | 0.4 (≈ 0.664 µM) | 0.4 (≈ 0.664 µM) | 0.4 (≈ 0.664 µM) | 2 (≈ 3.32 µM) | 2 (≈ 3.32 µM) | 0.25 to 1 (≈ 0.415 to 1.66 µM) | 0.25 to 1 (≈ 0.415 to 1.66 µM) | 0.25 to 1 (≈ 0.415 to 1.66 µM) | 1.01 to 2 (≈ 1.68 to 3.32 µM) | 0.08 (≈ 0.133 µM) | 0.08 (≈ 0.133 µM) | 8.30 to 9.00 | 8.30 to 9.00 | 0.25 to 1 (≈ 0.415 to 1.66 µM) | 1.01 to 2 (≈ 1.68 to 3.32 µM) | –
2 | COc1ccc(F)cc1[C@H](Cn1c(=O)n(C(C)(C)C(=O)N2CCCC2)c(=O)c2c(C)c(-n3nccn3)sc21)OC[C@@H](C)O [Compound I-46, 1-((R)-2-(5-fluoro-2-methoxyphenyl)-2-((R)-2-hydroxypropoxy)ethyl)-5-methyl-3-(2-methyl-1-oxo-1-(pyrrolidin-1-yl)propan-2-yl)-6-(2H-1,2,3-triazol-2-yl)thieno[2,3-d]pyrimidine-2,4(1H,3H)-dione] | – | – | 8.00 to 8.30 | 8.00 to 8.30 | – | – | – | – | – | – | – | – | – | – | – | – | 8.30 to 9.00 | 8.30 to 9.00 | – | – | IC90 [1, 27]: > 50 µg/mL; IC90 [1, 28]: > 50 µg/mL; IC90 [3, 29]: 2 µg/mL (≈ 3.25 µM); IC90 [3, 30]: 2 µg/mL (≈ 3.25 µM); IC90 [4, 31]: 2 µg/mL (≈ 3.25 µM); IC90 [4, 32]: 2 µg/mL (≈ 3.25 µM); IC90 [5, 33]: 2 µg/mL (≈ 3.25 µM); IC90 [5, 34]: 2 µg/mL (≈ 3.25 µM); MIC [6, 35]: 0.25 to 1 µg/mL (≈ 0.407 to 1.63 µM); MIC [6, 36]: 0.25 to 1 µg/mL (≈ 0.407 to 1.63 µM); MIC [7, 37]: 0.25 to 1 µg/mL (≈ 0.407 to 1.63 µM); MIC [7, 38]: 2.01 to 4 µg/mL (≈ 3.27 to 6.51 µM); IC90 [8, 39]: 0.4 µg/mL (≈ 0.651 µM); IC90 [8, 40]: 0.4 µg/mL (≈ 0.651 µM); MIC [10, 41]: 1.1 to 2 µg/mL (≈ 1.79 to 3.25 µM); MIC [10, 42]: 1.01 to 2 µg/mL (≈ 1.64 to 3.25 µM)
3 | COc1ccc(F)cc1[C@H](Cn1c(=O)n(C(C)(C)C(=O)NC(C)C)c(=O)c2c(C)c(-n3nccn3)sc21)OC[C@H](C)O [Compound I-47, 2-(1-((R)-2-(5-fluoro-2-methoxyphenyl)-2-((S)-2-hydroxypropoxy)ethyl)-5-methyl-2,4-dioxo-6-(2H-1,2,3-triazol-2-yl)-1,4-dihydro-thieno[2,3-d]pyrimidin-3(2H)-yl)-N-isopropyl-2-methylpropanamide] | > 50 | > 50 | 7.40 to 8.00 | 7.40 to 8.00 | 0.4 (≈ 0.664 µM) | 0.4 (≈ 0.664 µM) | 0.4 (≈ 0.664 µM) | 0.4 (≈ 0.664 µM) | 0.4 (≈ 0.664 µM) | 0.4 (≈ 0.664 µM) | 0.25 to 1 (≈ 0.415 to 1.66 µM) | 0.25 to 1 (≈ 0.415 to 1.66 µM) | 0.06 to 0.24 (≈ 0.0996 to 0.398 µM) | 1.01 to 2 (≈ 1.68 to 3.32 µM) | 0.4 (≈ 0.664 µM) | 0.4 (≈ 0.664 µM) | 8.30 to 9.00 | 8.30 to 9.00 | 0.25 to 1 (≈ 0.415 to 1.66 µM) | 1.01 to 2 (≈ 1.68 to 3.32 µM) | –
4 | COc1ccc(F)cc1[C@H](Cn1c(=O)n(C(C)(C)C(=O)N2CCCC2)c(=O)c2c(C)c(-n3nccn3)sc21)OC[C@H](C)O [Compound I-48, 1-((R)-2-(5-fluoro-2-methoxyphenyl)-2-((S)-2-hydroxy-propoxy)ethyl)-5-methyl-3-(2-methyl-1-oxo-1-(pyrrolidin-1-yl)propan-2-yl)-6-(2H-1,2,3-triazol-2-yl)thieno[2,3-d]pyrimidine-2,4(1H,3H)-dione] | – | – | 8.00 to 8.30 | 8.00 to 8.30 | – | – | – | – | – | – | – | – | – | – | – | – | 9.00 to 9.40 | 9.00 to 9.52 | – | – | IC90 [1, 27]: > 50 µg/mL; IC90 [1, 28]: > 50 µg/mL; IC90 [3, 29]: 2 µg/mL (≈ 3.25 µM); IC90 [3, 30]: 2 µg/mL (≈ 3.25 µM); IC90 [4, 31]: 0.4 µg/mL (≈ 0.651 µM); IC90 [4, 32]: 0.4 µg/mL (≈ 0.651 µM); IC90 [5, 33]: 2 µg/mL (≈ 3.25 µM); IC90 [5, 34]: 2 µg/mL (≈ 3.25 µM); MIC [6, 35]: 1.1 to 2 µg/mL (≈ 1.79 to 3.25 µM); MIC [6, 36]: 0.25 to 1 µg/mL (≈ 0.407 to 1.63 µM); MIC [7, 37]: 1.1 to 2 µg/mL (≈ 1.79 to 3.25 µM); MIC [7, 38]: 2.01 to 4 µg/mL (≈ 3.27 to 6.51 µM); IC90 [8, 39]: 2 µg/mL (≈ 3.25 µM); IC90 [8, 40]: 10 µg/mL (≈ 16.3 µM); MIC [10, 41]: 2.1 to 4 µg/mL (≈ 3.42 to 6.51 µM); MIC [10, 42]: 1.01 to 2 µg/mL (≈ 1.64 to 3.25 µM)

Reference: patent publication US10800791B2, “Triazole ACC inhibitors and uses thereof” (Gilead Apollo, LLC, priority 2015, dated 2020)
